How the values were obtained:
Format in all cases: cell-based
[1] = tested on: human gastric cancer cell (KATO III); assay: Cell proliferation inhibition, MTS method, human gastric cancer cell KATO III
Procedure: (§1) The test solution was prepared by dissolving the (compound 1) into the DMSO (dimethylsulfoxide) with the concentration of 8 mg/ml.
(§2) The test was implemented by using the human lung cancer cell (LU99), two kind of the human gastric cancer cell (KATO III, MKN-45), the human prostate cancer cell (DU145), the human malignant melanoma cell (G-361), the human bladder cancer cell (T24), two kind of the human lymphoma cell (U937, Jurkat E6.1) and the human leukemia cell (HL60) as the cancer cell.
(§3) These cells were suspended in the each culture medium that the serum of 10% was added, and were dispensed in 96-well plate. And then, these were cultured in 5% CO2 at 37 degrees centigrade during a night. The test solution was prepared in the culture medium to the various concentrations, and was dispensed into the plate that the cells were set preliminarily. And further, these were cultured in 5% CO2 at 37 degrees centigrade for three days.
(§4) The cell proliferation after the medicine addition was measured on the 3rd day from the 1st day after the medicine addition by the MTS method (Kit for cell proliferation test manufactured by Promega Company, Cell Titer 96 Aqueous One Solution Cell Proliferation Assay).
(§5) The inhibition rate (%) of the cell proliferation was obtained from the measured MTS value by the following formula.
(§6) Inhibition rate(%)=(1−MTS value of medicine addition group/MTS value of medicine non-addition group)×100
(§7) Because the value which was obtained by the above-mentioned formula represents the inhibition rate of the cell proliferation, the higher the numerical value is, the higher the medicine effect is. It is deemed that the one whose value is 50% or more has the medicine effect.
(§8) The (compound 2) was prepared as the test solution, and the inhibition rate of the cell proliferation was measured by the method similar to the embodiment 7.

[2] = tested on: human lymphoma cell (U937); assay: Cell proliferation inhibition, MTS method, human lymphoma cell U937
Procedure: as §1, §2, §3, §4, §5, §6, §7, §8

[3] = tested on: human lymphoma cell (Jurkat E6.1); assay: Cell proliferation inhibition, MTS method, human lymphoma cell Jurkat E6.1
Procedure: as §1, §2, §3, §4, §5, §6, §7

[4] = tested on: human leukemia cell (HL60); assay: Cell proliferation inhibition, MTS method, human leukemia cell HL60
Procedure: as §1, §2, §3, §4, §5, §6, §7

[5] = tested on: human gastric cancer cell (MKN-45); assay: Cell proliferation inhibition, MTS method, human gastric cancer cell MKN-45
Procedure: as §2, §3, §4, §5, §6, §7
(§9) The (compound 5) was prepared as the test solution, and the inhibition rate of the cell proliferation was measured by the method similar to the embodiment 7.
(§10) The (compound 6) was prepared as the test solution, and the inhibition rate of the cell proliferation was measured by the method similar to the embodiment 7.

[6] = tested on: human prostate cancer cell (DU145); assay: Cell proliferation inhibition, MTS method, human prostate cancer cell DU145
Procedure: as §2, §3, §4, §5, §6, §7, §8

[7] = tested on: human lung cancer cell (LU99); assay: Cell proliferation inhibition, MTS method, human lung cancer cell LU99
Procedure: as §2, §3, §4, §5, §6, §7, §9, §10

[8] = tested on: human malignant melanoma cell (G-361); assay: Cell proliferation inhibition, MTS method, human malignant melanoma cell G-361
Procedure: as §2, §3, §4, §5, §6, §7, §9, §10

[9] = tested on: human bladder cancer cell (T24); assay: Cell proliferation inhibition, MTS method, human bladder cancer cell T24
Procedure: as §2, §3, §4, §5, §6
Because the value which was obtained by the above-mentioned formula represents the inhibition rate of the cell proliferation, the higher the numerical value is, the higher the medicine effect is. It is deemed that the one whose value is 50% or more has the medicine effect. […]

Row | Compound | Inhibition rate of cell proliferation after 3 days from medicine addition ([1]; 5 μg/ml) [%] | Inhibition rate of cell proliferation after 3 days from medicine addition ([1]; 10 μg/ml) [%] | Inhibition rate of cell proliferation after 3 days from medicine addition ([1]; 20 μg/ml) [%] | Inhibition rate of cell proliferation after 3 days from medicine addition ([2]; U937, 5 μg/ml) [%] | Inhibition rate of cell proliferation after 3 days from medicine addition ([2]; U937, 10 μg/ml) [%] | Inhibition rate of cell proliferation after 3 days from medicine addition ([2]; U937, 20 μg/ml) [%] | Inhibition rate of cell proliferation after 3 days from medicine addition ([3]; Jurkat E6.1, 5 μg/ml) [%] | Inhibition rate of cell proliferation after 3 days from medicine addition ([3]; Jurkat E6.1, 10 μg/ml) [%] | Inhibition rate of cell proliferation after 3 days from medicine addition ([5]; MKN-45, 5 μg/ml) [%] | Inhibition rate of cell proliferation after 3 days from medicine addition ([5]; MKN-45, 10 μg/ml) [%] | Inhibition rate of cell proliferation after 3 days from medicine addition ([5]; MKN-45, 20 μg/ml) [%] | Inhibition rate of cell proliferation after 3 days from medicine addition ([7]; LU99, 5 μg/ml) [%] | Inhibition rate of cell proliferation after 3 days from medicine addition ([7]; LU99, 10 μg/ml) [%] | Inhibition rate of cell proliferation after 3 days from medicine addition ([7]; LU99, 20 μg/ml) [%] | Inhibition rate of cell proliferation after 3 days from medicine addition ([8]; G-361, 5 μg/ml) [%] | Inhibition rate of cell proliferation after 3 days from medicine addition ([8]; G-361, 10 μg/ml) [%] | Inhibition rate of cell proliferation after 3 days from medicine addition ([8]; G-361, 20 μg/ml) [%] | Inhibition rate of cell proliferation after 3 days from medicine addition ([9]; T24, 5 μg/ml) [%] | Inhibition rate of cell proliferation after 3 days from medicine addition ([9]; T24, 10 μg/ml) [%] | Inhibition rate of cell proliferation after 3 days from medicine addition ([9]; T24, 20 μg/ml) [%] | other results
1 | NC1CCCC12CCCC2N.O=C1CC(=O)[O][Pt]([Cl])([Cl])[O]1 [Compound 1, dichloromalonato((1S,5S,6S)-spiro[4.4]nonane-1,6-diamine)platinum(IV)] | 53 | 75 | 88 | 98 | 102 | 101 | 92 | 97 | – | – | – | – | – | – | – | – | – | – | – | – | Inhibition rate of cell proliferation after 3 days from medicine addition ([3]; Jurkat E6.1, 20 μg/ml): 100%; Inhibition rate of cell proliferation after 3 days from medicine addition ([4]; HL60, 5 μg/ml): 91%; Inhibition rate of cell proliferation after 3 days from medicine addition ([4]; HL60, 10 μg/ml): 97%; Inhibition rate of cell proliferation after 3 days from medicine addition ([4]; HL60, 20 μg/ml): 99%
2 | O=C1[O][Pt]2([NH][C@@H]3CCCC[C@H]3[NH]2)[O]C1=O [Oxaliplatin, oxaliplatin, reference compound] | 58 | 75 | 87 | 67 | 90 | 99 | 90 | 94 | 73 | 82 | 87 | 38 | 40 | 49 | 50 | 59 | 74 | 38 | 43 | 48 | Inhibition rate of cell proliferation after 3 days from medicine addition ([6]; DU145, 5 μg/ml): 46%; Inhibition rate of cell proliferation after 3 days from medicine addition ([6]; DU145, 10 μg/ml): 71%; Inhibition rate of cell proliferation after 3 days from medicine addition ([6]; DU145, 20 μg/ml): 81%; Inhibition rate of cell proliferation after 3 days from medicine addition ([3]; Jurkat E6.1, 20 μg/ml): 97%; Inhibition rate of cell proliferation after 3 days from medicine addition ([4]; HL60, 5 μg/ml): 73%; Inhibition rate of cell proliferation after 3 days from medicine addition ([4]; HL60, 10 μg/ml): 86%; Inhibition rate of cell proliferation after 3 days from medicine addition ([4]; HL60, 20 μg/ml): 93%
3 | NC1CCCC12CCCC2N.[Cl][Pt]([Cl])([Cl])[Cl] [Compound 5, Tetrachloro((S,S,S)-spiro[4.4]nonane-1,6-diamine)platinum(IV)] | – | – | – | – | – | – | – | – | 90 | 93 | 87 | 65 | 84 | 91 | 83 | 95 | 98 | 79 | 86 | 80 | –
4 | NC1CCCC12CCCC2N.[Cl][Pt]([Cl])([Cl])[Cl] [Compound 6, tetrachloro((R,R,R)-spiro[4.4]nonane-1,6-diamine)platinum(IV)] | – | – | – | – | – | – | – | – | 88 | 80 | 76 | 89 | 96 | 98 | 89 | 96 | 98 | 78 | 81 | 81 | –
5 | NC1CCCC12CCCC2N.O=C1CC(=O)[O][Pt]([Cl])([Cl])[O]1 [Compound 2, Dichloro complexes (G) of the malonato((R,R,R)-spiro[4,4]nonane-1,6-diamine)platinum(IV)] | 78 | 90 | 82 | 100 | 100 | 100 | – | – | – | – | – | – | – | – | – | – | – | 52 | 77 | 87 | Inhibition rate of cell proliferation after 3 days from medicine addition ([6]; DU145, 5 μg/ml): 51%; Inhibition rate of cell proliferation after 3 days from medicine addition ([6]; DU145, 10 μg/ml): 76%; Inhibition rate of cell proliferation after 3 days from medicine addition ([6]; DU145, 20 μg/ml): 84%

— patent US20140221475A1, “PLATINUM(IV) COMPLEXES AND PHARMACEUTICAL COMPOSITION CONTAINING THE SAME” (UNITECH CO., LTD., priority 2011, published 2014)
